Measured values taken from patent US20220265629A1, “TREATMENT OF SYSTOLIC DYSFUNCTION AND HEART FAILURE WITH REDUCED EJECTION FRACTION WITH THE COMPOUND (R)-4-(1-((3-(DIFLUOROMETHYL)-1-METHYL-1H-PYRAZOL-4-YL)SULFONYL)-1-FLUOROETHYL)-N-(ISOXAZOL-3-YL)PIPERIDINE-1-CARBOXAMIDE” (MyoKardia, Inc., priority 2019, published 2022).

System: patients with stable HFrEF
Test: HFrEF study Part 1 (SAD Cohorts 1 and 2): TTE pharmacodynamics by plasma concentration group
Format: in vivo, human
Conditions: for A wave peak change from baseline, placebo-corrected (LS mean difference) / E wave peak change from baseline, placebo-corrected (LS mean difference) / E/A ratio change from baseline, placebo-corrected (LS mean difference) / E/e′ lateral change from baseline, placebo-corrected (LS mean difference) / LVEDD change from baseline, placebo-corrected (LS mean difference) / LVEDV change from baseline, placebo-corrected (LS mean difference) / LVEF change from baseline, placebo-corrected (LS mean difference) / LVESD change from baseline, placebo-corrected (LS mean difference) / LVESV change from baseline, placebo-corrected (LS mean difference) / LVFS change from baseline, placebo-corrected (LS mean difference) / LVGLS change from baseline, placebo-corrected (LS mean difference) / LVSV change from baseline, placebo-corrected (LS mean difference) / SET change from baseline, placebo-corrected (LS mean difference) / e′ lateral change from baseline, placebo-corrected (LS mean difference): pooled SAD Cohorts 1 and 2
Experimental: PD assessment was done by transthoracic echocardiography as described in Example 1 above. TTE evaluations of LVSV (derived from LVOT-VTI), LVEF, LVFS, SET, and other parameters were PD assessments at predetermined time points. The patients were on bed rest for 10 minutes before the TTEs were obtained. In Part 2 (MAD), TTEs were usually obtained before the morning close and/or at 7 hours postclose (i.e., close to the anticipated peak effect based on the PK profile from the healthy volunteer studies).
For both Cohorts 1 and 2, the pharmacodynamic effects of Compound I on echocardiographic markers of cardiac structure and function were analyzed by Compound I plasma concentration groups: <2000 ng/mL (low concentration group) and >2000 ng/mL (high concentration group) (Table 12).

[1] = high plasma concentration group (≥2000 ng/mL)

Cn1cc(S(=O)(=O)[C@@](C)(F)C2CCN(C(=O)Nc3ccon3)CC2)c(C(F)F)n1 [Compound I, (R)-4-(1-((3-(difluoromethyl)-1-methyl-1H-pyrazol-4-yl)sulfonyl)-1-fluoroethyl)-N-(isoxazol-3-yl)piperidine-1-carboxamide]
SET prolongation in one patient (350 mg, 1.5 and 3 h postdose): ~63 ms
Mean SET prolongation for all patients (350 mg, 3 to 9 hours postdose): 16.2 ms
SET prolongation in one patient (350 mg, 6 and 9 hours postdose): < 35 ms
increase in SET (SAD cohorts): < 50 ms
relative increases from baseline in cardiac contractility (SV, LVEF, FS) (SAD cohorts): approximately 10%
LV ejection fraction, mean (SE) increase from baseline [1]: 4.4%
LV global longitudinal strain, mean (SE) decrease [1]: −2.1%
A wave peak change from baseline, placebo-corrected (LS mean difference) (plasma <2000 ng/mL): -3.2 cm/s
E wave peak change from baseline, placebo-corrected (LS mean difference) (plasma <2000 ng/mL): -1.1 cm/s
E/A ratio change from baseline, placebo-corrected (LS mean difference) (plasma <2000 ng/mL): 0.09
E/e′ lateral change from baseline, placebo-corrected (LS mean difference) (plasma <2000 ng/mL): 0.6
LVEDD change from baseline, placebo-corrected (LS mean difference) (plasma <2000 ng/mL): 0.2 mm
LVEDV change from baseline, placebo-corrected (LS mean difference) (plasma <2000 ng/mL): -2.5 mL
LVEF change from baseline, placebo-corrected (LS mean difference) (plasma <2000 ng/mL): 4.1%
LVESD change from baseline, placebo-corrected (LS mean difference) (plasma <2000 ng/mL): −1.3 mm
LVESV change from baseline, placebo-corrected (LS mean difference) (plasma <2000 ng/mL): -4.0 mL
LVFS change from baseline, placebo-corrected (LS mean difference) (plasma <2000 ng/mL): 3.1%
LVGLS change from baseline, placebo-corrected (LS mean difference) (plasma <2000 ng/mL): −1.1%
LVSV change from baseline, placebo-corrected (LS mean difference) (plasma <2000 ng/mL): 1.0 mL
SET change from baseline, placebo-corrected (LS mean difference) (plasma <2000 ng/mL): 8 ms
e′ lateral change from baseline, placebo-corrected (LS mean difference) (plasma <2000 ng/mL): -1 cm/s
A wave peak change from baseline, placebo-corrected (LS mean difference) (plasma ≥2000 ng/mL): -8.8 cm/s
E wave peak change from baseline, placebo-corrected (LS mean difference) (plasma ≥2000 ng/mL): -1.6 cm/s
E/A ratio change from baseline, placebo-corrected (LS mean difference) (plasma ≥2000 ng/mL): 0.08
E/e′ lateral change from baseline, placebo-corrected (LS mean difference) (plasma ≥2000 ng/mL): 0.2
LVEDD change from baseline, placebo-corrected (LS mean difference) (plasma ≥2000 ng/mL): −0.3 mm
LVEDV change from baseline, placebo-corrected (LS mean difference) (plasma ≥2000 ng/mL): -1.9 mL
LVEF change from baseline, placebo-corrected (LS mean difference) (plasma ≥2000 ng/mL): 4.4%
LVESD change from baseline, placebo-corrected (LS mean difference) (plasma ≥2000 ng/mL): −1.8 mm
LVESV change from baseline, placebo-corrected (LS mean difference) (plasma ≥2000 ng/mL): -3.5 mL
LVFS change from baseline, placebo-corrected (LS mean difference) (plasma ≥2000 ng/mL): 2.8%
LVGLS change from baseline, placebo-corrected (LS mean difference) (plasma ≥2000 ng/mL): −2.1%
LVSV change from baseline, placebo-corrected (LS mean difference) (plasma ≥2000 ng/mL): 9.0 mL
SET change from baseline, placebo-corrected (LS mean difference) (plasma ≥2000 ng/mL): 36 ms
e′ lateral change from baseline, placebo-corrected (LS mean difference) (plasma ≥2000 ng/mL): -1 cm/s
